What was measured:
[1] = cited from earlier work
[2] = system: Spontaneously hypertensive rats (SHR); assay: SBP of SHR by Tail-Cuff method, first administration and continuous administration for 14 days (Examples 8-12); format: in vivo, rat; details: for AUC0-24h: after first administration
Protocol: Spontaneously hypertensive rats (SHR), male, are provided by Beijing Vital River Laboratory Animal Technology Co., Ltd. The number of animal production license is SCXK (Jing) 2007-0001. Animals are raised in an observation room at the room temperature of 25±2° C. controlled by central air-conditioning system and with artificial lighting of 12 h/day. The animals are raised in separate cages sized 43×27×18 cm with 4 animals for each cage. The rats are free access to water and are fed with block fodder everyday, and the water supply is refreshed once a day. The temperature of the room for measuring the blood pressure is 26±2° C.
The blood pressure is measured by Tail-Cuff method and the hear rate is measured according to the pulse frequency. Animals are pre-trained for the blood pressure measurement for more than 2 weeks so as to adapt to the environment of measurement. Animals are placed in a isothermal bag at 37° C. to be prewarmed for 5 to 10 min for formal measurement. Blood pressures of the rats are measured from tail arteries for 2 to 3 times at rest states, and an average value is taken as each blood pressure measured value. All data are collected and preserved by a computer.
SHRs with systolic blood pressures (SBPs)>190 mmHg are selected for experiment.
Rats are randomly divided into 20 groups according to their blood pressures with each group having 8-10 rats. Animals are fasted overnight and measured for the blood pressure of pre-administration at the day of experiment, and then administered drugs in accordance with the following method:
The single-drug group is intragastrically administered candesartan (Can) or chlorthalidone (Chl), with the dosage of Can of 0.1, 0.2, 0.4 mg/kg respectively and the dosage of Chl of 0.3125, 0.625, 1.25 mg/kg respectively;
According to the clinical single-drug specification, the ratios of Can+Chl are set as follows:
For the ratio of Can:Chl=1:6.25, one dose of 0.1+0.625 mg/kg is set;
For the ratio of Can:Chl=1:3.125, two doses of 0.2+0.625 and 0.4+1.25 mg/kg are set;
For the ratio of Can:Chl=1.28:1, one dose of 0.4+0.3125 mg/kg is set;
For the ratio of Can:Chl=2.56:1, one dose of 0.4+0.15625 mg/kg is set;
The administration volumes are all 5 mL/kg. Rats are continuously administered for 14 days. SBPs are measured 2, 4, 8, 12 and 24 hours after the first administration. On the day of 3, 7, 14 days after administration, the blood pressures are measured before administration and 5 hours after administration. Areas under blood pressure reduction-time curve from 0 to 24 h and from 0 to 14 days (AUC0-24h, AUC0-14d) are calculated.
The calculated results are expressed as mean±standard error ( x±SE); statistical treatment is performed using unpaired t test between groups to compare the significance of the average difference; the interaction between drugs are determined by using factorial analysis of variance, and P<0.05 means the difference has statistical significance.

[3] = 12.5-25 mg/d of chlorthalidone, clinical studies

Q: With `NS(=O)(=O)c1cc(C2(O)NC(=O)c3ccccc32)ccc1Cl` (stereo not drawn) [Chl, Chlorthalidone] as the compound, how does the “lowering of 24-hour blood pressure” value [1, 3] read?
A: Its value is 12.4 mmHg.

Q: And the “lowering of night-time blood pressure” value [1, 3]?
A: Its value is 13.5 mmHg.

Q: And the “antihypertensive efficacy relative to that of hydrochlorothiazide” value ([1]; according to Khoska)?
A: The value was 1.5-2 times.

Q: What about the AUC0-14d ([2]; Chl 0.3125 mg/kg i.g. for 14 days) of the same compound?
A: Its AUC0-14d is −125.9 mmHg · d.

Q: And the AUC0-24h ([2]; Chl 0.3125 mg/kg i.g.)?
A: The AUC0-24h was −133.1 mmHg · h.

Q: What about the AUC0-14d ([2]; Chl 0.625 mg/kg i.g. for 14 days) of the same compound?
A: The AUC0-14d was −134.5 mmHg · d.

Q: What about the AUC0-24h ([2]; Chl 0.625 mg/kg i.g.) of the same compound?
A: Its AUC0-24h is −190.4 mmHg · h.

Q: And the AUC0-14d ([2]; Chl 1.25 mg/kg i.g. for 14 days)?
A: Its AUC0-14d is −174.2 mmHg · d.

Q: What about the AUC0-24h ([2]; Chl 1.25 mg/kg i.g.) of the same compound?
A: The AUC0-24h was −208.1 mmHg · h.
